Literature values, collected in patent EP2743282B1, “Melamine-aldehyde-condensation product and method obtaining the same” (Borealis Agrolinz Melamine GmbH, priority 2012, dated 2014).
In brackets after ≈: the same amount, converted by molar mass.

Settings: in water at 20 °C
In the case of CNc1nc(NC)nc(N(C)C)n1 [N,N,N',N"-tetramethylmelamine, reference compound], the water solubility is given as 49000 µg/mL (≈ 269 mM).
In the case of CN(C)c1nc(N)nc(N(C)C)n1 [N,N,N',N'-tetramethylmelamine], the water solubility is listed as 400 µg/mL (≈ 2.2 mM).
For CN(C)c1nc(N)nc(N)n1 [N,N-dimethylmelamine], the water solubility is given as 1200 µg/mL (≈ 7.78 mM).
